# Test results from patent publication US4029799A, “Certain analgesically active substituted benzyl pyridine compounds” (Laboratorios Made, S.A., priority 1975, dated 1977).
# Legend:
# [1] = Acute toxicity (i.p.), method of Lichfield and Wilcoxon; format: in vivo, I.C.R. Swiss mice, both sexes; details: mouse, in vivo, ip, mice, read-out: Lethal dose 50 (LD50)
# Description: (§1) acute toxicity studies were carried out in I.C.R. Swiss mice weighing 24± 2 g, of both sexes. The products were administered intraperitoneally (i.p.). Acute toxicity was calculated by the method of Lichfield and Wilcoxon.
# I.C.R. Swiss mice = assay: as above; format: in vivo, both sexes
# Description: as §1
# [2] = test system: female albino I.C.R. Swiss mice; assay: Analgesic activity, Hot Plate Test at 55° C.; format: in vivo; details: for Jump-off time: 30 minutes after administration, average ± standard mean error, control 77 ± 9.272
# Description: the analgesic activity of 2-(3,4,5-trimethoxybenzyl)-3,4-dimethylpyridine compound (I) was investigated in female albino I.C.R. Swiss mice weighing 24± 2 g. For this the Hot Plate Test was used at 55° C. 4 groups of mice each comprising 10 animals, were assembled. The distribution of the groups was according to the following scheme:-
# Group 1-- Control - 0.2 ml of distilled H2 O
# Group 2-- Compound I-0.2 ml of a solution of 2-(3,4,5-trimethoxybenzyl)-3,4-dimethylpyridine (I), 3 mg/ml.
# Group 3-- Compound I-0.2 ml of a solution of 2-(3,4,5-trimethoxybenzyl)-3,4-dimethylpyridine (I), 6 mg/ml.
# Group 4-- Dextropropoxyphene - 0.2 ml of a solution of dextropropoxyphene, 6 mg/ml.
# The products were injected intraperitoneally, and the measurements of analgesia were made 30 minutes after the administration of the drugs. Note was taken of the time taken for an animal to jump off the hot plate.
smiles,measurement,setting,value
"COc1cc(Cc2nccc(C)c2C)cc(OC)c1OC [Compound I, 2-(3,4,5-trimethoxybenzyl)-3,4-dimethylpyridine]",LD50,[1],250 mg/kg
same,toxicity compared with d-propoxyphene,I.C.R. Swiss mice,less toxic
same,Jump-off time,[2]; 25 mg/kg i.p.,77 ± 8.203 s
same,Significance (jump-off time),"[2]; 25 mg/kg i.p., N.S. or p value",N.S.
same,Jump-off time,[2]; 50 mg/kg i.p.,133.5 ± 12.581 s
same,analgesic activity compared with d-propoxyphene,"[2]; for equal doses, Hot Plate Test",more analgesic than d-propoxyphene
same,therapeutic index compared with dextropropoxyphene,[2]; from analgesia and acute toxicity in mice,greater than that of dextropropoxyphene
"CCC(=O)O[C@](Cc1ccccc1)(c1ccccc1)[C@H](C)CN(C)C [Dextropropoxyphene, reference compound]",Jump-off time,[2]; 50 mg/kg i.p.,102.4 ± 10.302 s
